Assay results as given in patent US6043285A, “Use of p-aminophenol derivatives for the preparation of pharmaceutical compositions useful in the treatment of neurodegenerative diseases” (Angelini Ricerche S.p.A. Societa'Consortile, priority 1996, dated 2000).
Where two headings read alike, the source gives them in different places.

Tests used:
[1] = test system: interleukin-6 (IL-6) production in T98G cell line; test: IL-6 production in the T98G cell line stimulated with β-amyloid; assay type: cell-based, human
Description: The effect of paracetamol on the production of IL-6 was studied using the human cell line glioblastoma T98G. The said line is in fact capable of constitutively producing IL-6 and this synthesis is augmented in the presence of aggregated β-amyloid. Indomethacin was used as the reference drug.
The cells (2×10^6 /ml) were incubated for 48 hours in the presence of increasing concentrations of paracetamol (10-1000 μM) or indomethacin (0.1-10 μM) in the presence of β-amyloid (50 μM) aggregated by incubation at 37° C. for 6 days. At the end of the experiment the culture medium was harvested and the quantity of IL-6 produced in the various conditions was assayed using a commercial immunoenzymatic kit (Biotrak IL-6, Amersham, UK).

[2] = test system: E2 prostaglandins production in T98G cell line; test: Prostaglandin E2 production in the T98G cell line stimulated with IL-1β; assay type: cell-based, human; conditions: IL-1β stimulated
Description: (§1) The cells (2×10^6 /ml) were incubated for 48 hours in the presence of increasing concentrations of paracetamol (10-100-500-1000 μM) or indomethacin (0, 1-1-10 μM) both in the presence and in the absence of IL-1β (50 U/ml). On completion of incubation, the culture medium was harvested and the quantity of C3 secreted by the cells in the various conditions was measured. C3 was assayed in a sandwich-type immunoenzymatic test, in which two anti-C3 antibodies of different species were used as well as an antiserum labeled with an alkaline phosphatase specific for one of the two anti-C3 antibodies. The secreted C3 was quantified using a standard curve prepared on the basis of purified C3.
(§2) Parallel experiments were conducted in which the ability of paracetamol and indomethacin to inhibit the production of prostaglandins produced by the glioblastoma T98G cell line or by the J774.2 cellular macrophagic cell line was assessed.
The test with T98G cells stimulated with IL-1β was conducted as described in the previous Example 1. At the end of incubation the culture medium was harvested and the quantity of E2 prostaglandins present was measured. The prostaglandins were assayed by means of a commercially available immunoenzymatic test ([…]).

[3] = test system: prostaglandin E2 production in J774.2 macrophagic cells; test: Prostaglandin E2 production in the J774.2 macrophagic cell line stimulated with LPS; assay type: cell-based
Description: as §2
Parallel to the above experiment, J774.2 (2×10^6 /ml) macrophagic cells were stimulated with lipopolysaccharide (LPS) (1 μg/ml) for 12 hours. After 3 washes with physiological solution, the cells were incubated for 45 minutes together with increasing concentrations of paracetamol (0.1-100 μM) or indomethacin (0.01-1 μM). At the end of incubation the supernatants were harvested and the prostaglandin E2 content was measured using the previously described test.

T98G cell line = test: Toxicity in the T98G cellular system; assay type: cell-based, human; conditions: concentration above 10 μM not possible
[4] = test system: factor 3 of the complement (C3) production in T98G cell line; test: Complement factor C3 secretion in the T98G cell line; assay type: cell-based, human; conditions: for reducing secretion of factors of the complement (in words): T98G cells
Description: The effect of paracetamol on the production of complement factors has been studied using the human glioblastoma T98G cell line. The said line is in fact capable of constitutively producing factor 3 of the complement (C3) and this synthesis is further increased in the presence of various stimuli such as interleukin-1 beta (IL-1β). Indomethacin has been used as the reference drug.
as §1

[5] = test system: patients suffering from Alzheimer's disease; conditions: 44 patients, 6 months, in comparison with placebo; cited from earlier work
peripheral cycloxygenase = conditions: cited from earlier work
[6] = cited from earlier work
[7] = test system: T98G and J774.2 cell lines; test: Selectivity of action on the nervous system (Tables 1 to 4 as a whole); assay type: cell-based; conditions: contrary to indomethacin
Description: as §2

[8] = test system: onset of the Alzheimer disease; conditions: retrospective, subjects treated for pain and fever; cited from earlier work
[9] = low therapeutic doses from 0.5 to 1 g, 3 or 4 times a day; cited from earlier work
[10] = Homo sapiens, T98G, 48 h, read-out: Inhibition % of production of IL-6
[11] = Mus musculus, J774.2, 0.75 h, read-out: Inhibition % of production of prostaglandins
[12] = Homo sapiens, T98G, 48 h, read-out: Inhibition % of production of complement (C3)
[13] = Homo sapiens, T98G, 48 h, IL-1β stimulated (50 U/ml)
[14] = Homo sapiens, T98G, 48 h, not stimulated with IL-1β

COc1ccc2c(c1)c(CC(=O)O)c(C)n2C(=O)c1ccc(Cl)cc1 [Indomethacin]
inhibition at 0.1 µM [1, 10]: 21.1% | inhibition at 1 µM [1, 10]: 17.6% | inhibition at 10 µM [1, 10]: 11.5% | inhibition at 0.1 µM ([2]; Homo sapiens, 0.1 μM): 99.3% | inhibition at 1 µM ([2]; Homo sapiens, 1 μM): 98.4% | inhibition at 10 µM ([2]; Homo sapiens): 99.1% | inhibiting production of prostaglandins in glial cells (in words) [2]: capable of inhibiting production of prostaglandins in the glial cells of the central nervous system in a significant manner | inhibition at 0.01 µM [3, 11]: 35.8% | inhibition at 0.1 µM [3, 11]: 61.1% | inhibition at 1 µM [3, 11]: 87.4% | toxicity in the cellular system used (T98G cell line): because of its toxicity in the cellular system used, it was not possible to increase its concentration above 10 μM | inhibition at 0.1 µM [4, 12]: 26.9% | inhibition at 1 µM [4, 12]: 21.7% | inhibition at 10 µM [4, 12]: 35.1% | inhibition at 10 µM ([4]; Homo sapiens, T98G, read-out: inhibiting activity on secretion of the complement): 35% | reducing secretion of factors of the complement (in words) [4]: active in reducing the secretion of the complement | reducing secretion of factors of the complement (in words) ([4]; listed as indomethacin): capable of reducing secretion of factors of the complement | progression of dementia [5]: notable slowing of the progression of dementia

CC(=O)Nc1ccc(O)cc1 [Paracetamol, N-acetyl-p-aminophenol]
action on peripheral cycloxygenase (peripheral cycloxygenase): absence of action on peripheral cycloxygenase | inhibition at 10 µM ([1]; Homo sapiens, T98G, β-amyloid stimulated (50 μM), 48 hours, 10 μM, read-out: Inhibition % of production of IL-6): 11.4% | inhibition at 100 µM ([1]; Homo sapiens, T98G, β-amyloid stimulated (50 μM), 48 hours, 100 μM): 6.7% | inhibition at 500 µM ([1]; Homo sapiens, T98G, β-amyloid stimulated (50 μM), 48 hours, 500 μM): 20.5% | inhibition at 1000 µM ([1]; Homo sapiens, T98G, β-amyloid stimulated (50 μM), 48 hours, 1000 μM): 41.2% | IC50 ([1]; Homo sapiens, T98G, β-amyloid stimulated, read-out: Cl50 for production of IL-6): > 1000 µM | reducing the secretion of IL-6 (in words) ([1]; in the presence of β-amyloid): capable of reducing the secretion of IL-6 | inhibition at 10 µM ([2]; Homo sapiens): 26.7% | inhibition at 100 µM ([2]; Homo sapiens, 100 μM): 88.5% | inhibition at 500 µM ([2]; Homo sapiens, 500 μM): 96.9% | inhibition at 1000 µM ([2]; Homo sapiens, 1000 μM): 99% | inhibiting production of prostaglandins in glial cells (in words) [2]: capable of inhibiting production of prostaglandins in the glial cells of the central nervous system in a significant manner | plasma concentration ([6]; after 6 hours, oral administration of 1 g): approximately 1.5 mg/l | tissue distribution ([6]; in words, including the brain): distributed evenly throughout the major part of the tissues of the organism, including the brain | absorption ([6]; in words): rapidly absorbed | tissue concentration relative to plasma ([6]; oral administration): substantially the same as the plasma concentration | plasma concentration ([6]; within a few minutes of oral administration of 1 g): approximately 10 mg/l | concentration ([6]; within a few minutes of oral administration of 1 g, read-out: plasma concentration): ~66.2 µM | selectivity of action on the nervous system [7]: peculiar selectivity of action on the nervous system | inhibiting activity on production of prostaglandins in macrophages (in words) ([3]; J774.2, LPS stimulated): little inhibiting activity on production of prostaglandins in macrophages | inhibition at 0.1 µM ([3]; Mus musculus, 0.75 h, J774.2, LPS stimulated (1 μg/ml), 45 minutes, 0.1 μM, read-out: Inhibition % of production of prostaglandins): 5.3% | inhibition at 1 µM ([3]; Mus musculus, 0.75 h, J774.2, LPS stimulated (1 μg/ml), 45 minutes, 1 μM, read-out: Inhibition % of production of prostaglandins): 6.4% | inhibition at 10 µM ([3]; Mus musculus, 0.75 h, J774.2, LPS stimulated (1 μg/ml), 45 minutes, 10 μM, read-out: Inhibition % of production of prostaglandins): 12.5% | inhibition at 100 µM ([3]; Mus musculus, 0.75 h, J774.2, LPS stimulated (1 μg/ml), 45 minutes, 100 μM, read-out: Inhibition % of production of prostaglandins): 11.4% | delay in the onset of the Alzheimer disease [8]: negative | side effects [9]: no significant side effects | tolerability [9]: well tolerated | inhibition at 100 µM ([4]; Homo sapiens, T98G, 48 h, IL-1β stimulated (50 U/ml), 100 μM): 23.6% | inhibition at 500 µM [4, 13]: 39.8% | inhibition at 1000 µM [4, 13]: 47.5% | inhibition at 10 µM ([4]; Homo sapiens, T98G, 48 h, IL-1β stimulated (50 U/ml), 48 hours, 10 μM, read-out: Inhibition % of production of complement (C3)): 0.1% | inhibition at 500 µM [4, 14]: 37.4% | inhibition at 1000 µM [4, 14]: 60.8% | IC50 ([4]; Homo sapiens, T98G, cells stimulated with interleukin-1 beta, read-out: Cl50 for secretion of C3): ~1000 µM | reducing secretion of factors of the complement (in words) [4]: capable of reducing secretion of factors of the complement
